Data published in ChEMBL document CHEMBL1240402 (2010).
Active and inactive are the calls of the source. The rule behind the calls is not given here.

Legend:
Format in all cases: functional
[1] = system: Clostridium perfringens; experiment: Antimicrobial activity against Clostridium perfringens LFM1 assessed as resistance breakpoint by DIN-standardized microdilution method
[2] = system: Clostridium perfringens; experiment: Antimicrobial activity against Clostridium perfringens LFM1 assessed as resistance breakpoint by DANMAP method
[3] = system: Clostridium perfringens; experiment: Antimicrobial activity against Clostridium perfringens LFM1 assessed as resistant breakpoint by EUCAST method

In the case of `CCC[C@@H]1C[C@@H](C(=O)N[C@@H]([C@H]2O[C@H](SC)[C@H](O)[C@@H](O)[C@H]2O)[C@H](C)Cl)N(C)C1`, the Activity [1] is reported as “inactive”.

`CC[C@H]1OC(=O)[C@H](C)[C@@H](O[C@H]2C[C@@](C)(OC)[C@@H](O)[C@H](C)O2)[C@H](C)[C@@H](O[C@@H]2O[C@H](C)C[C@H](N(C)C)[C@H]2O)[C@](C)(O)C[C@@H](C)C(=O)[C@H](C)[C@@H](O)[C@]1(C)O` was tested, and the Activity [1] was “inactive”.

In the case of `O=C(N[C@H](CO)[C@H](O)c1ccc([N+](=O)[O-])cc1)C(Cl)Cl`, the Activity [2] is reported as “inactive”.

`CS(=O)(=O)c1ccc([C@@H](O)[C@@H](CF)NC(=O)C(Cl)Cl)cc1` [FLORFENICOL] was tested, and the Activity [2] was “inactive”.

`CC(=O)NC[C@H]1CN(c2ccc(N3CCOCC3)c(F)c2)C(=O)O1` [LINEZOLID] was tested, and the Activity [2] was greater than 4 mg/L, the Activity [3] was “inactive” and the Activity ([3]; record 2) was greater than 4 mg/L. For the same compound, the Activity [1] was greater than 4 mg/L.
